Key:
[1] = test system: A2780 ovarian cancer cells; test: T cell phenotype (CCR7, CD4/CD8) and proliferation in A2780 / PARP inhibitor co-culture; assay type: cell-based, human; conditions: for CCR7 expression (% CCR7+ cells in Tim4+ T cells): 120 hours co-culture with olaparib-treated A2780 cells; for CER T cell proliferation: co-cultures treated with PARPi vs wtTIM-4 T cells or no drug, E:T 1:1
From the text: FIGS. 27A-27B show a (FIG. 27A) schematic of chimeric Tim4 receptors, CER-1234 and CER1236 of the present disclosure; and (FIG. 27B) a schematic of assay set up for assessing immune phenotype of the chimeric Tim4 receptors in co-culture with PARP inhibitor treated ovarian cancer cells. CER-1234 and CER1236 have an extracellular Tim4 binding domain, CD28 transmembrane domain, CD28 signaling domain, TLR2 signaling domain, and CD3ζ signaling domain, and showing the orientation of the signaling domains in the chimeric Tim4 receptor constructs. A control molecule, CER-1183, having a Tim4 extracellular binding domain, a Tim4 transmembrane domain, and Tim4 signaling domain is also depicted.
Samples on bar graph from left to right: A2780+ T cell, A2780+ T cell +niraparib, and A2780+ T cell +olaparib. […] For FIGS. 29A-29C, co-culture conditions A2780+ T cell; A2780+ T cell +niraparib; A27080+ T cell +olaparib are shown from left to right in the bar graph for each donor T cell sample.
FIGS. 30A-30C show CD4/CD8 T cell ratio at 120 hours of co-culture of chimeric Tim4 receptor transduced T cells, olaparib or niraparib, and target A2780 ovarian cancer cells. Samples on bar graph from left to right: A2780+ T cell, A2780+T cell +niraparib, and A2780+ T cell +olaparib. […] For FIGS. 4A-4C, co-culture conditions A2780+ T cell; A2780+ T cell +niraparib; A27080+T cell +olaparib are shown from left to right in the bar graph for each donor T cell sample.
Expression of TIM-4, CD45RA, and CCR7 as well as CD4/CD8 ratios were evaluated by flow cytometry using commercially available fluorochrome-conjugated antibodies. Proliferation was measured by flow cytometry using precision count beads to determine the absolute counts of viable T cells at the end of the co-culture. T-cell proliferation is reported as the fold expansion of T cell counts at 120 hours relative to 0 hours.

[2] = test system: E7 TCR T cells; test: APC-like function after co-culture with PS-positive E7-positive SCC152 cells: HLA-DR/CD25 on E7 TCR T cells; assay type: cell-based; conditions: for antigen presentation function versus untransduced T cells: FIG. 52, FIG. 53; for activation (HLA-DR) of autologous E7 TCR T cells: after co-culture with E7-positive/PS-positive SCC152 cells, vs untransduced T cells or anti-CD19 CAR T cells; for antigen presentation function, overall (FIGS. 50-54): repeated experiments
From the text: (§1) FIGS. 25A-25B: CER1236 T cells activate E7 TCR T cells via presentation of tumor cell-derived E7 antigen in an HLA-I-dependent manner. […] FIG. 25B: In a separate experiment, induction of HLA-DR on E7 TCR cells following co-culture of CER-1236 with E7 oncoprotein positive/PS-positive SCC152 cells was blocked by HLA-I blocking antibody, but not a control isotype antibody. Bars depict percentage of E7 TCR T cells that express the activation marker, HLA-DR. Error bars show SEM.
as §1, with “36A-36B:” for “25A-25B:”, “6B:” for “25B:”
(§2) CER1183, CER1161, CER1234 or CER1236 T cells were cultured alone or co-cultured with phosphatidylserine-positive HPV E7 oncoprotein-positive cells (TMEM30A−/− SCC152) for 48 hours, followed by positive selection of T cells and co-culture for a 4 days with cell trace violet labeled-HPV E7 TCR T cells.
as §2, with “(TMEM30A−/−SCC152)” for “(TMEM30A−/− SCC152)”, “for” for “for a”, “days (FIG. 51, left graph) or 6 days (FIG. 51, right graph)” for “days”
CER1183, CER1161, CER1234 or CER1236 T cells were cultured alone or co-cultured with phosphatidylserine-positive HPV E7 oncoprotein-positive cells (TMEM30A−/− SCC152) for 48 hours, followed by positive selection of T cells and co-culture for 4 days with cell trace violet labeled-HPV E7 TCR T cells.
CER1183, CER1161, CER1234 or CER1236 T cells were cultured alone or co-cultured with phosphatidylserine-positive HPV E7 oncoprotein-positive cells (TMEM30A−/−SCC152) for 48 hours, followed by positive selection of T cells and co-culture for 6 days with cell trace violet labeled-HPV E7 TCR T cells.
Antigen-presenting cell (APC)-like function of CER T cells was assessed after a 48-hour co-culture with phosphatidylserine-positive E7 oncoprotein-positive cells. T cells were separated and co-cultured for 4 days with cell trace violet-labeled E7 TCR T cells. The activation marker HLA-DR on E7 TCR T cells was analyzed using flow cytometry. Phosphatidylserine-positive SCC152 squamous cell carcinoma cells were engineered by knockout of the TMEM30A gene (a flippase chaperone required for PS internalization). The role of HLA-I in APC-like function was determined by performing the same experiment in the presence of HLA-I blocking or the corresponding isotype antibodies.
Phosphatidylserine exposure on A2780 ovarian cancer cells upon treatment with the small molecule PARP inhibitors niraparib or olaparib was evaluated by annexin v staining to determine the appropriate drug dose. Phosphatidylserine targeting Tim-4 CER constructs designed to enhance cytotoxicity and target-dependent tumor cell fragment uptake were engineered. CER T cell designs were as follows: CER-1234 (Tim-4/CD28/TLR2/CD3z; SEQ ID NO:18); CER-1236 (Tim-4/CD28/CD3z/TLR2; SEQ ID NO:19); and CER-1250 (Tim-4 binding mutant/CD28/TLR2/CD3z; SEQ ID NO:24). CER-1250 has the same intracellular signaling domains as […] but has a mutated IgV domain with AAAA substitution to abrogate phosphatidylserine binding. Niraparib (0.5 μM) and olaparib (1.5 μM) were used to expose phosphatidylserine on the surface of A2780 cells for CER T cell recognition and cytotoxicity, T-cell activation, and cytokine responses were evaluated. Uptake of antigen by CER-1236 T cells was modeled with human papilloma virus E7 antigen-expressing squamous carcinoma (SCC152) TMEM30A phospholipid flippase knockout cells. […]

[3] = test system: REC-1 cells; test: CER T cell cytotoxicity against REC-1 mCherry cells with ibrutinib (Incucyte); assay type: cell-based; conditions: for cytotoxic activity of CER T cells alone (no ibrutinib) / tumor cell killing in combination with ibrutinib: REC-1 cells
From the text: FIG. 38: CER1236 T cells have enhanced and more complete cytotoxic effect against Ibrutinib-treated REC-1 MCL cells but not untreated REC-1 MCL cells.
Ibrutinib was washed off prior to co-culture with CER T cells. […] Total fluorescence of REC-1 mCherry cells decreased as cytotoxicity occurred.

CER-1236: chimeric Tim4 receptor: Tim4 binding domain-CD28tm-CD28-CD3z-TLR2 TIR, SEQ ID NO:19; tested as transduced T cells
CD4/CD8 ratio ([1]; 120 hours co-culture with PARPi-treated A2780, donor 38 and donor 41): higher CD4/CD8 ratios | CCR7 expression (% CCR7+ cells in Tim4+ T cells) [1]: Higher CCR7 expression | CER T cell proliferation [1]: proliferated in co-cultures treated with PARPi | HLA-DR MFI versus untransduced T cells ([2]; FIG. 50, FIG. 51, FIG. 54): significant difference in HLA-DR MFI | antigen presentation function versus untransduced T cells [2]: display better antigen presentation function than untransduced T cells | HLA class I dependence of E7 TCR activation ([2]; HLA-I blocking vs isotype antibody): dependent on antigen presentation via the HLA class I system | activation (HLA-DR) of autologous E7 TCR T cells [2]: induced HLA-DR on E7 TCR cells | activation (HLA-DR) of autologous E7 TCR T cells ([2]; listed as CER1236): supported greater activation of autologous E7 TCR T cells | increase of activation status of E7 TCR T cells ([2]; exposed to TMEM30A″ SCC152 cancer cells relative to CER-1236 T cells alone): 5 fold | antigen presentation function, overall (FIGS. 50-54) [2]: consistently had better antigen presentation function compared to untransduced T cells | cytotoxic activity of CER T cells alone (no ibrutinib) [3]: Some CER1236 T cytotoxicity against untreated REC-1 cells is observed | tumor cell killing in combination with ibrutinib [3]: synergize with ibrutinib to enhance killing of REC-1 mantle cell lymphoma cells

CER-1234: chimeric Tim4 receptor: Tim4 binding domain-CD28tm-CD28-TLR2 TIR-CD3z, SEQ ID NO:18; tested as transduced T cells
CCR7 expression (% CCR7+ cells in Tim4+ T cells) [1]: Higher CCR7 expression | CER T cell proliferation [1]: proliferated in co-cultures treated with PARPi | antigen presentation function versus untransduced T cells [2]: display better antigen presentation function than untransduced T cells | antigen presentation function, overall (FIGS. 50-54) [2]: did not show any antigen presentation function over untransduced T cells in some experiments | cytotoxicity ([3]; BTKi treatment in combination): > 90% | cytotoxic activity of CER T cells alone (no ibrutinib) [3]: limited cytotoxic activity | tumor cell killing in combination with ibrutinib [3]: Tumor cell killing was enhanced

Source: US20250127896A1, “CHIMERIC TIM4 RECEPTORS AND USES THEREOF” (CERO THERAPEUTICS HOLDINGS, INC., priority 2021, published 2025)
